Activity calls are given as the source filed them. No cut-off for these calls is given here.
Columns and labels:
[1] = molecular target: T1, Nicotinate phosphoribosyltransferase (Homo sapiens) (UniProt Q6XQN6); experiment: Inhibition of NAPRT in human OVCAR5 cells assessed as potentiation of NAMPT inhibitor FK866-induced cytotoxicity by measuring reduction in cell viability at 300 uM to 1 mM incubated for 72 hrs by SRB assay; type: cell-based
T1 sequence (whole entry): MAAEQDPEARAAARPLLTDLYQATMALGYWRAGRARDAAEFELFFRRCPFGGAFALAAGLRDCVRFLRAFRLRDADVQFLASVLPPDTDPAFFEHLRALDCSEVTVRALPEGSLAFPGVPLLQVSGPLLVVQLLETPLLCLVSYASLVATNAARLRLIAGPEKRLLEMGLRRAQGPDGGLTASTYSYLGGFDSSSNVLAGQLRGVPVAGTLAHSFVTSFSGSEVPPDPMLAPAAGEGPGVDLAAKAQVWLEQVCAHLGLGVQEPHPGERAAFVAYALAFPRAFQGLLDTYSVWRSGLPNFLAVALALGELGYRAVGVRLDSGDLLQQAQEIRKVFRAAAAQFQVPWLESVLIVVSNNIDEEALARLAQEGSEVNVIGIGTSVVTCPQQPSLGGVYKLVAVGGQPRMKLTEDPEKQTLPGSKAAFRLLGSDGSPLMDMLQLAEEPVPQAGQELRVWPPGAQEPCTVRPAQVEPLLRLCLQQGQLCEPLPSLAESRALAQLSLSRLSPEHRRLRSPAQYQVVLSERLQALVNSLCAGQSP

[2] = Toxicity in NAMPT inhibitor 10 mg/kg, ip bid FK866 treated SCID mouse xenografted with human NAMALWA cells assessed as induction of obvious signs of clinical toxicity at 35 mg/kg, ip bid up to 45 days; type: organism-based; details: in vivo, 1080 h
NAMALVA = experiment: Potentiation of NAMPT inhibitor 10 mg/kg, ip bid FK866-induced antitumor activity in human NAMALWA cells xenografted in SCID mouse assessed as increase in mouse survival at 35 mg/kg, ip bid up to 45 days; type: functional, organism-based

Row | Structure (SMILES) | inhibition [1] | Activity [2] | Activity (NAMALVA)
1 | O=C(O)c1ccccc1O | Active | – | –
2 | CC(=O)Oc1ccccc1C(=O)O [ASPIRIN] | – | Non-Toxic | Active

Reference: ChEMBL document CHEMBL4417637, “Sensitization of cancer cells to nampt inhibitors by nicotinic acid phosphoribosyltransferase neutralization” (2017)
